Measured values reported in US5114919A, “Adjuncts in cancer chemotherapy” (Merck & Co., Inc., priority 1991, dated 1992).

Legend:
[1] = system: KB-V-1 drug-resistant cell line; assay: [3H]vinblastine accumulation assay in KB-V-1 drug-resistant cells; format: cell-based, human; conditions: for Accumulation of [3H]vinblastine, KB-V-1, drug preincubated (60 min): Table 2
From the text: (§1) Radiolabelled compounds may also be utilized to determine the accumulation of antitumor chemotherapeutic agents in drug sensitive cells and in multidrug resistant cells. For example, the accumulation of [^3 H]vinblastine by drug sensitive cell lines and drug resistant cell lines in the presence or absence of a test compound may be determined. The relative accumulation of the radiolabelled chemotherapeutic agent is indicative of the ability of a compound to reverse multidrug resistance.
(§2) Drug Accumulation: Measurement of the accumulation of [^3 H] vinblastine in a KB-3 drug-sensitive cell line and a KB-V-1 drug-resistantcell line was performed at 37° C. in serum-free medium (DMEM). Cell monolayers were grown in 24 well dishes. [^3 H] vinblastine and different compounds (20 μM) were added to cells incubated for 30 minutes, monolayers were washed later, and drug accumulation per mg protein was assayed.

[2] = system: KB-3 drug-sensitive cell line; assay: [3H]vinblastine accumulation assay in KB-3 drug-sensitive cells; format: cell-based, human; conditions: 37° C., serum-free DMEM; for Accumulation of [3H]vinblastine, KB-3: Table 1, compound 20 μM, 30 minutes; for Accumulation of [3H]vinblastine, KB-3, drug preincubated (60 min): Table 2, drug preincubated 60 min, compound 20 μM
From the text: as §1, §2

[3] = compound 20 μM, 37° C., serum-free DMEM, drug-resistant cells
[4] = Table 1, compound 20 μM, 30 minutes, 37° C., serum-free DMEM, drug-resistant cells

SMILES: COc1cc(C(=O)NCc2ccc3c(c2)C(=C2CCN(C)CC2)c2ccccc2C=C3)cc(OC)c1OC [3,4,5-Trimethoxy-N-((5-(1-methyl-4-piperidinylidene)-5H-dibenzo[a,d]cyclohepten-3-yl)methyl)benzamide]
- Accumulation of [3H]vinblastine, KB-V-1 ([1]; 20 µM): 3.31 ± 0.25 pmole/mg protein
- Accumulation of [3H]vinblastine, KB-V-1, drug preincubated (60 min) [1, 3]: 3.57 ± 0.16 pmole/mg protein
- Accumulation of [3H]vinblastine, KB-3 [2]: 8.15 ± 0.44 pmole/mg protein
- Accumulation of [3H]vinblastine, KB-3, drug preincubated (60 min) [2]: 3.67 ± 0.32 pmole/mg protein

SMILES: COc1ccc(CCN(C)CCCC(C#N)(c2ccc(OC)c(OC)c2)C(C)C)cc1OC (stereo not drawn) [Verapamil, reference compound]
- Accumulation of [3H]vinblastine, KB-V-1 [1, 4]: 2.21 ± 0.18 pmole/mg protein
- Accumulation of [3H]vinblastine, KB-V-1, drug preincubated (60 min) [1, 3]: 2.36 ± 0.21 pmole/mg protein
- Accumulation of [3H]vinblastine, KB-3 [2]: 4.65 ± 0.13 pmole/mg protein
- Accumulation of [3H]vinblastine, KB-3, drug preincubated (60 min) [2]: 4.71 ± 0.25 pmole/mg protein

SMILES: FC(F)(F)Sc1ccc2c(c1)C(=C1CCN(CC3CC3)CC1)c1ccccc1C=C2 [(-)-1-cyclopropylmethyl-4-(3-trifluoromethylthio-5H-dibenzo[a,d]cyclohepten-5-ylidene)piperidine]
- Accumulation of [3H]vinblastine, KB-V-1 [1, 4]: 0.91 ± 0.04 pmole/mg protein
- Accumulation of [3H]vinblastine, KB-V-1, drug preincubated (60 min) [1, 3]: 1.85 ± 0.11 pmole/mg protein
- Accumulation of [3H]vinblastine, KB-3 [2]: 11.65 ± 0.11 pmole/mg protein
- Accumulation of [3H]vinblastine, KB-3, drug preincubated (60 min) [2]: 10.16 ± 0.41 pmole/mg protein

SMILES: COc1cc(N)c(Cl)cc1C(=O)NCc1ccc2c(c1)C(=C1CCN(C)CC1)c1ccccc1C=C2 [4-Amino-5-chloro-2-methoxy-N-((5-(1-methyl-4-piperidinylidene)-5H-dibenzo[a,d]cyclohepten-3-yl)methyl)benzamide]
- Accumulation of [3H]vinblastine, KB-V-1 [1, 4]: 3.47 ± 0.26 pmole/mg protein
- Accumulation of [3H]vinblastine, KB-3 [2]: 3.47 ± 0.15 pmole/mg protein

SMILES: CCOC(=O)C1=C(C)NC(C)=C(C(=O)OCC)C1c1ccc2c(c1)C(=C1CCN(C)CC1)c1ccccc1C=C2 [Diethyl 1,4-dihydro-2,6-dimethyl-4-(5-(1-methyl-4-piperidinylidene)-5H-dibenzo[a,d]cyclohepten-3-yl)pyridine dicarboxylate]
- Accumulation of [3H]vinblastine, KB-V-1 [1, 4]: 2.13 ± 0.15 pmole/mg protein
- Accumulation of [3H]vinblastine, KB-3 [2]: 3.32 ± 0.09 pmole/mg protein

SMILES: Ic1ccc2c(c1)C(=C1CCN(CC3CC3)CC1)c1ccccc1C=C2 [(+)-1-cyclopropylmethyl-4-(3-iodo-5H-dibenzo[a,d]cyclohepten-5-ylidene)piperidine]
- Accumulation of [3H]vinblastine, KB-V-1 [1, 4]: 2.91 ± 0.25 pmole/mg protein
- Accumulation of [3H]vinblastine, KB-3 [2]: 7.35 ± 0.18 pmole/mg protein
